Converted amounts (≈) assume the structure as drawn.
Legend:
physchem = conditions: 37 °C, water, thermodynamic from solid
Description: (§1) A spectrophotometric method was used. Standards were prepared in methanol (including a methanol blank) and the absorbance measured at 260 and 270 nm, from which a calibration line was generated for each wavelength. The test compound was incubated with agitation in water at 37° C. for 24 h before removal of non-soluble material by centrifugation. The supernatant was analysed against the calibration lines (after subtraction of the water blank response) and the mean of the determinations at the two wavelengths was reported.

V1a vasopressin receptor = V1a vasopressin receptor (Homo sapiens, UniProt P37288); conditions: dysmenorrhoea patients, oral; cited from earlier work
[1] = Oral availability: plasma exposure in rats after oral dosing of suspensions; assay type: in vivo; conditions: rat, suspension in 0.5% HPMC, 10 mg/kg p.o.
Description: The plasma exposure in rats following dosing with the cyclopropanecarboxylic acid 4-(6-chloro-3-methyl-4,10-dihydro-3H-2,3,4,9-tetraazabenzo[f]azulene-9-carbonyl)-2-fluoro-benzylamide para-toluenesulphonate (“Tosylate”) has been examined in comparison with the corresponding free base, cyclopropanecarboxylic acid 4-(6-chloro-3-methyl-4,10-dihydro-3H-2,3,4,9-tetraazabenzo[f]azulene-9-carbonyl)-2-fluoro-benzylamide (“Free Base”).

[2] = Thermodynamic solubility in water (spectrophotometric method)
Description: as §1

[3] = biological target: T1, cloned human V1a receptor (Homo sapiens, UniProt P37288); assay: In vitro functional calcium mobilisation assay (FLIPR), antagonist activity; assay type: cell-based; conditions: read-out: mean fpKi (Human V1a) (converted)
T1 construct: expressed in transfected cells
Description: The ability of the tosylate salt of the invention to inhibit the vasopressin V1a receptor may be determined using the in vitro functional calcium mobilisation assay (FLIPR) described in PCT/DK2005/000540. This assay measures antagonist activity at a cloned human V1a receptor.

Chain of V1a vasopressin receptor (P37288 whole entry): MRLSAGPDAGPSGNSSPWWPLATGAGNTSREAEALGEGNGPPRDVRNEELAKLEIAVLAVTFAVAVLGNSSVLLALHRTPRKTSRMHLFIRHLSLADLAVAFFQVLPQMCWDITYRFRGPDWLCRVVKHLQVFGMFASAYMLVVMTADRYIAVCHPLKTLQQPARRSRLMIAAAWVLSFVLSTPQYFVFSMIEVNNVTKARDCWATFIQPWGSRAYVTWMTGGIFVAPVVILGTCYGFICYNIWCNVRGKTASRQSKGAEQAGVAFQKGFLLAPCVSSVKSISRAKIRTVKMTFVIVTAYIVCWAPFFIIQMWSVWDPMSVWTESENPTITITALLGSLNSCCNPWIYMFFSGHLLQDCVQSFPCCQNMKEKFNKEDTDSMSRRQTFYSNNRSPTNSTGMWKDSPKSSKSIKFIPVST
T1 sequence (P37288 whole entry): as above

SMILES: Cn1ncc2c1Nc1cc(Cl)ccc1N(C(=O)c1ccc(CNC(=O)C3CC3)c(F)c1)C2 [Free base, cyclopropanecarboxylic acid 4-(6-chloro-3-methyl-4,10-dihydro-3H-2,3,4,9-tetraazabenzo[f]azulene-9-carbonyl)-2-fluoro-benzylamide, reference compound]
- solubility at 24 h (physchem): 5 µg/mL (≈ 11 µM)

SMILES: COc1ccc(S(=O)(=O)N2c3ccc(Cl)cc3[C@](O)(c3ccccc3Cl)[C@@H]2C(=O)N2CCC[C@H]2C(N)=O)cc1OC [SR49059]
- Pain and additional pain-killer use compared to placebo (V1a vasopressin receptor): dose-related decrease in the amount of additional pain-killer taken

SMILES: Cc1ccc(S(=O)(=O)O)cc1.Cn1ncc2c1Nc1cc(Cl)ccc1N(C(=O)c1ccc(CNC(=O)C3CC3)c(F)c1)C2 [Tosylate, cyclopropanecarboxylic acid 4-(6-chloro-3-methyl-4,10-dihydro-3H-2,3,4,9-tetraazabenzo[f]azulene-9-carbonyl)-2-fluoro-benzylamide para-toluenesulphonate]
- AUC(0-t) ([1]; in vivo, po): 670 ng·h/mL
- Cmax ([1]; in vivo, po): 209 ng/mL
- Plasma exposure / absorption after oral dosing (in words) [1]: significant improvements in plasma exposure
- Solubility in water relative to known free base [2]: 8 ×
- solubility at 24 h ([2]; 37 °C, thermodynamic from solid): 40 µg/mL
- Ki [3]: 3.16 nM

From US9073928B2, “Tosylate salt of cyclopropanecarboxylic acid 4-(6-chloro-3-methyl-4, 10-dihydro-3H-2,3,4,9-tetrabenzo[f]azulene-9-carbonyl)-2-fluorobenzylamide” (Vantia Limited, priority 2010, dated 2015)
